Read-outs that look alike come from different tables or passages of the source.
What was measured:
OCI-AML5 cells = test: Dose-response proliferative assay in OCI-AML5 (4 days, CellTiterGlo); assay type: cell-based, H. sapiens; conditions: Homo sapiens
Experimental: Cell lines were purchased from the ATCC or donated from collaborators. OCI-AML5 cell line was cultured in αMEM, 10% heat-inactivated FBS supplemented with 10 ng/mL GM-CSF, OCI-AML1, U2OS and HEK293T cell lines in DMEM, 10% heat-inactivated FBS. Cells were maintained at 37 °C in 5% CO2 atmosphere.
Dose-response assays in primary AML specimens were performed as in chemical screen (see above) with the exception that compounds were tested in serial dilution (8 dilutions, 1:4, 10 μM down to 0.5 nM). Dose-response assays in OCI-AML5 cell line were conducted similarly with the following modifications: 300 cells per well were seeded in 50 μL of cell line media and cell viability was evaluated after 4 days in culture.

cyclin KeGFP = test: Cyclin KeGFP reporter system (eGFP/mCherry MFI by flow cytometry);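 as to % degradation cyclin K-eGFP: 10 μM compound for 3 h relative to DMSO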; assay type: cell-based, H. sapiens; conditions: for % degradation cyclin K-eGFP: cyclin K-eGFP reporter
Experimental: We used the cyclin KeGFP reporter system previously described (Słabicki et al, [2020]). Lentiviral vector (Addgene plasmid #169930) was used to infect OCI-AML5 at a MOI of 5 and were selected with puromycin. Cells were seeded in methylcellulose and let grown as colonies for 10 days. Colonies were isolated, expanded and selected based on cyclin KeGFP fluorescence in presence and absence of cyclin K degrader molecules. Selected G7 clone was used for all reported experiments. Fluorescent signal of cyclin KeGFP and mCherry were quantified by flow cytometry (BD LSRII) in each condition and the geometric mean fluorescence intensity (MFI) were calculated using FlowJo (BD Biosciences). The ratio of eGFP to mCherry was normalized to DMSO-treated cells.

CDK9/CyclinT = molecular target: T1, CDK9/CyclinT (Homo sapiens, UniProt P50750); test: CDK9/CyclinT in vitro kinase activity, single concentration 1 μM; assay type: biochemical; conditions: single concentration 1 μM
T1 construct: purchased BPS Bioscience 79628
T1 sequence (P50750 whole entry): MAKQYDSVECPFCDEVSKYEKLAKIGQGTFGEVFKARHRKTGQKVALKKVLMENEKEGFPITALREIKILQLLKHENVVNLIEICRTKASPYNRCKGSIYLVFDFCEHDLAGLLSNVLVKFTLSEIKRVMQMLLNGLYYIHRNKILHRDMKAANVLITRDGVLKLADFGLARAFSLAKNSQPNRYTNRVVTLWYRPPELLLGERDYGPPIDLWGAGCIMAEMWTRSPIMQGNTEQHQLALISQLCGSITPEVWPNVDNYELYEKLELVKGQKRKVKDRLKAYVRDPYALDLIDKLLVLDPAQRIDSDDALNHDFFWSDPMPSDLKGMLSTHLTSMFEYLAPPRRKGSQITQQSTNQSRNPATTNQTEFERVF
T1 sequence (O60563 whole entry partner): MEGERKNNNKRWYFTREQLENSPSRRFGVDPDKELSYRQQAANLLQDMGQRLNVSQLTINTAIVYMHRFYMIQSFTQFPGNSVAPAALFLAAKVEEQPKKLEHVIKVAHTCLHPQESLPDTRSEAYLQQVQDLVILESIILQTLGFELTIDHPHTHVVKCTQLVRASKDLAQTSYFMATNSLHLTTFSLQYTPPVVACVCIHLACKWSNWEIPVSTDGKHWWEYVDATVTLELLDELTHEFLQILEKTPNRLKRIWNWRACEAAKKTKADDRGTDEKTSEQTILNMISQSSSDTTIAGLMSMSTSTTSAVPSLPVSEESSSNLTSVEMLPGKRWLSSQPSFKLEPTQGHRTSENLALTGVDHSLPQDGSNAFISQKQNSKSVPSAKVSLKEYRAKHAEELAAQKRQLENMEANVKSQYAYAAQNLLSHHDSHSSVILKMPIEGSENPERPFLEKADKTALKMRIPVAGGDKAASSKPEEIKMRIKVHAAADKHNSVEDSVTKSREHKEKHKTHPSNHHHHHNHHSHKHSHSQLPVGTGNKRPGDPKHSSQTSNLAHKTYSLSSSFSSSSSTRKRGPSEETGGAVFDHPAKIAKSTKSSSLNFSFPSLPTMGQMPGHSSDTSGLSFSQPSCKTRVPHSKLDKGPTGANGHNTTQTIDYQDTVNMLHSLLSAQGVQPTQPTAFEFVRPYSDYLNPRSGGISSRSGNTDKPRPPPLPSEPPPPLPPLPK
Experimental: Kinase activity was assessed using the kinase assay kits from BPS Bioscience for CDK1, CDK9 and CDK12 with Kinase Glo MAX in duplicates. Compounds were tested at a single concentration of 1 μM for CDK1 and CDK9 activity, and in a dilution ranging from 0.64 nM to 50 μM for CDK12 activity. Chemiluminescence was read using the Neo Synergy BioTek plate reader.

[1] = system: OCI-AML5 cells expressing shRNAs targeting CDK1, 2, 4, 7, 9, cyclin K; test: Dose response in OCI-AML5 expressing shRNAs targeting CDK1, 2, 4, 7, 9, cyclin K or control; assay type: cell-based, H. sapiens; conditions: for Class: class from shRNA IC50 profile and cyclin K-eGFP degradation
[2] = OCI-AML-5, OCI-AML5 cells, read-out: IC50 in AML5
[3] = Homo sapiens, OCI-AML-5, OCI-AML5 expressing shRNA CCNK (cyclin K), read-out: IC50 shRNA CCNK
[4] = Homo sapiens, OCI-AML-5, OCI-AML5 expressing shRNA CDK1, read-out: IC50 shRNA CDK1
[5] = Homo sapiens, OCI-AML-5, OCI-AML5 expressing shRNA CDK2, read-out: IC50 shRNA CDK2
[6] = Homo sapiens, OCI-AML-5, OCI-AML5 expressing shRNA CDK4, read-out: IC50 shRNA CDK4
[7] = Homo sapiens, OCI-AML-5, OCI-AML5 expressing shRNA CDK7, read-out: IC50 shRNA CDK7
[8] = Homo sapiens, OCI-AML-5, OCI-AML5 expressing shRNA CDK9, read-out: IC50 shRNA CDK9
[9] = OCI-AML5 expressing shRNA CCNK (cyclin K), read-out: IC50 shRNA CCNK
[10] = OCI-AML5 expressing shRNA CDK1, read-out: IC50 shRNA CDK1
[11] = OCI-AML5 expressing shRNA CDK2, read-out: IC50 shRNA CDK2
[12] = OCI-AML5 expressing shRNA CDK4, read-out: IC50 shRNA CDK4
[13] = OCI-AML5 expressing shRNA CDK7, read-out: IC50 shRNA CDK7
[14] = OCI-AML5 expressing shRNA CDK9, read-out: IC50 shRNA CDK9

| SMILES | IC50 (OCI-AML5 cells; [2]) [µM] | % degradation cyclin K-eGFP (cyclin KeGFP) [%] | inhibition at 1 µM (CDK9/CyclinT) [%] | IC50 [1, 3] [µM] | IC50 [1, 4] [µM] | IC50 [1, 5] [µM] | IC50 [1, 6] [µM] | IC50 [1, 7] [µM] | IC50 [1, 8] [µM] | Class [1] | % CDK9 inhibition (CDK9/CyclinT) [%] | activity after alteration of the aminothiazole core / bulky replacement [1] | IC50 [1, 9] [µM] | IC50 [1, 10] [µM] | IC50 [1, 11] [µM] | IC50 [1, 12] [µM] | IC50 [1, 13] [µM] | IC50 [1, 14] [µM] | IC50 (OCI-AML5 cells; OCI-AML-5, 96 h, 4 days incubation, read-out: IC50 OCI-AML5) [µM] | % cyclin KeGFP degradation (cyclin KeGFP; 3 h, 10 μM, compared to DMSO, OCI-AML5 G7 clone) [%] |
| --- | --- | --- | --- | --- | --- | --- | --- | --- | --- | --- | --- | --- | --- | --- | --- | --- | --- | --- | --- | --- |
| CN(C)c1ccc(CC(=O)Nc2nccs2)cc1 [UOM-005597] | > 10 | 4 | 0 | > 10 | > 10 | > 10 | > 10 | > 10 | > 10 | inactive | – | – | – | – | – | – | – | – | – | – |
| Cc1csc(NC(=O)Cc2ccc(N(C)C)cc2)n1 [UOM-005598] | – | 1 | – | – | – | – | – | – | – | inactive | 0 | neither bind to CDKs, nor degrade Cyclin K | > 10 | > 10 | > 10 | > 10 | > 10 | > 10 | – | – |
| CN(C)c1ccc(CC(=O)Nc2nc3c(s2)CCC3)cc1 [UOM-005599] | > 10 | 13 | 0 | > 10 | > 10 | > 10 | > 10 | > 10 | > 10 | inactive | – | neither bind to CDKs, nor degrade Cyclin K | – | – | – | – | – | – | – | – |
| CN(C)c1ccc(CC(=O)Nc2nc3ccccc3s2)cc1 [UOM-005600] | – | 29 | – | – | – | – | – | – | – | inactive | 10 | neither bind to CDKs, nor degrade Cyclin K | > 10 | > 10 | > 10 | > 10 | > 10 | > 10 | – | – |
| CN(C)c1ccc(CC(=O)Nc2nncs2)cc1 [UOM-005601] | – | 1 | – | – | – | – | – | – | – | inactive | 0 | loss of binding of the compounds to CDK | > 10 | > 10 | > 10 | > 10 | > 10 | > 10 | – | – |
| COC(=O)c1cnc(NC(=O)Cc2ccc(N(C)C)cc2)s1 [UOM-005602] | > 10 | 26 | 0 | > 10 | > 10 | > 10 | > 10 | > 10 | > 10 | inactive | – | – | – | – | – | – | – | – | – | – |
| CN(C)c1ccc(CC(=O)Nc2nc3ccccc3[nH]2)cc1 [UOM-005603] | > 10 | 10 | 0 | > 10 | > 10 | > 10 | > 10 | > 10 | > 10 | inactive | – | neither bind to CDKs, nor degrade Cyclin K | – | – | – | – | – | – | – | – |
| CN(C)c1ccc(CC(=O)Nc2nc3ccccc3o2)cc1 [UOM-005604] | – | 8 | – | – | – | – | – | – | – | inactive | 0 | neither bind to CDKs, nor degrade Cyclin K | > 10 | > 10 | > 10 | > 10 | > 10 | > 10 | – | – |
| CN(C)c1ccc(CC(=O)Nc2nnc(SCc3cccnc3)s2)cc1 [UOM-005628] | > 10 | 0 | 0 | > 10 | > 10 | > 10 | > 10 | > 10 | > 10 | inactive | – | loss of binding of the compounds to CDK | – | – | – | – | – | – | – | – |
| CN(C)c1ccc(C(=O)Nc2ncc(SCc3cccnc3)s2)cc1 [UOM-005845] | – | – | – | – | – | – | – | – | – | – | – | – | – | – | – | – | – | – | 1.97 | 0 |
